Legend:
[1] = tested on: Staphylococcus aureus; assay: MIC micro broth dilution assay; type: cell-based; parameters: key to stacked score activity, 100/MIC, S: stacked score = 100/MIC; conditions: S. aureus
Method: (§1) For this study we used a representative panel of multi-drug resistant clinical ESKAPE pathogen isolates (Supplemental Table S6).^42 43 3a, 44 45 Gram-positive organisms were grown in tryptic soy broth media (TSB), whilst Gram-negative organisms were grown in lysogeny Broth (LB), as described by us previously. ^43 MIC and MBC determination assays.
(§2) Broth cultures of ESKAPE strains were grown overnight before being diluted 1 in 1,000 in fresh media. Sterile 96-well plates were loaded with culture and compounds (in DMF) were added at decreasing concentrations to equal a total volume of 200 μl per well. Care was taken to not add more than 2.0% DMF to any well. Plates were then incubated at 37° C., and MICs determined after 24 hours by visual inspection for a lack of turbidity in wells. All assays were performed in triplicate with identical results obtained. For both the scaffold ranking and positional scanning samples, relative broad-spectrum activity was determined via stacked scores: […]

[2] = tested on: Klebsiella pneumoniae; assay: MIC micro broth dilution assay; type: cell-based; parameters: key to stacked score activity, 100/MIC, K: stacked score = 100/MIC; conditions: K. pneumoniae
Method: as §1, §2

[3] = tested on: Acinetobacter baumannii; assay: MIC micro broth dilution assay; type: cell-based; parameters: key to stacked score activity, 100/MIC, A: stacked score = 100/MIC; conditions: A. baumannii
Method: as §1, §2

[4] = tested on: Enterobacter cloacae; assay: MIC micro broth dilution assay; type: cell-based; parameters: key to stacked score activity, 100/MIC, E: stacked score = 100/MIC; conditions: E. cloacae
Method: as §1, §2

[5] = tested on: Enterococcus faecium; assay: MIC micro broth dilution assay; type: cell-based; parameters: key to stacked score activity, 100/MIC, E: stacked score = 100/MIC; conditions: E. faecium
Method: as §1, §2

[6] = tested on: ESKAPE pathogens; assay: MIC micro broth dilution assay, statements and stacked scores over all ESKAPE pathogens; type: cell-based; conditions: letters E,S,K,A,P,E = ESKAPE pathogens, — = none
Method: as §1
as §2, with “The minimum inhibitory concentration (MIC) for the combinatorial libraries, deconvolved 2157 library, and individual compounds were determined as follows. Broth” for “Broth”

[7] = tested on: MRSA cells; assay: Time kill assay (lysis by OD600, viability by CFU); type: cell-based, Staphylococcus aureus; conditions: for cells remaining after exposure (optical density relative to starting values): MRSA, 2.0% SDS, 0.001% benzalkonium chloride, 0.001% benzethonium chloride; for cell recovery (viability, CFU/mL vs no drug control): after the 120 minute assay, agent washed out
Method: FIGS. 6A and 6B illustrates that bis-cyclic guanidines are bactericidal but not bacteriolytic. […] Shown is the optical density of cells relative to starting values from three independent experiments. Error bars are shown ±SEM. FIG. 8B is a graph illustrating cell viability of all samples after the 120 min experiment. Compounds were removed by centrifugation and washing of cells, followed by serial dilution and enumeration. Percent recovery was determined by comparison to no drug (ND) controls.
Time kill assays were performed in a 96-well microtiter plate using a BioTek Synergy2 plate reader. To prepare bacterial cultures, stationary phase MRSA cells were inoculated into fresh TSB and grown for 3 hours. After this time, cultures were inoculated into a 96-well microtiter plate at an OD600 of 0.5, followed by the addition of test agent at MIC concentrations. In parallel, 2.0% sodium dodecyl sulfate (SDS), 0.001% benzalkonium chloride, 0.001% benzethonium chloride, and 4 μM lysostaphin were used as positive controls. […] Assays were performed in triplicate over the span of 130 minutes, with OD600 readings taken every 10 minutes.

[8] = tested on: P. aeruginosa; assay: MIC reanalysis in the presence of the efflux inhibitor reserpine; type: cell-based, Pseudomonas aeruginosa; conditions: P. aeruginosa isolate 1420; 100 μM of reserpine or 2 μM of compound 1 individually
Source text: Given the minor variations observed in MIC for three of the Gram-negative organisms, and that these particular bacteria are renowned for efflux detoxification of antibacterial agents, we hypothesized that the differences observed likely relate to variation in efflux pump activity between strains. […] The effects observed appear to be universal, regardless of strain or compound tested. […] It should be noted that the data presented herein represents a worst-case scenario. […] Similar data was returned for all front runner agents, against all 10 isolates of the three Gram-negative organisms (data not shown). These findings support the hypothesis that inherent efflux mechanisms of certain Gram-negative organisms result in MIC variations for the lead bis-cyclic guanidines between clinical isolates.

[9] = tested on: K. pneumoniae; assay: Resistance serial passage assay; type: cell-based, Klebsiella pneumoniae; conditions: 8 passages, concentration doubled each day
Method: (§3) ESKAPE pathogens were grown overnight in liquid media at 37° C. These cultures were then diluted 1:100 in fresh media, and seeded into a 96-well plate. Lead bis-cyclic guanidines or control agents were added to respective wells at half MIC concentrations. Plates were then incubated for 24 hours at 37° C., with bacteria removed from these cultures on the following day, to inoculate fresh media (1:100 dilution) containing compounds at a 2-fold higher concentrations. These were then grown overnight, and the procedure repeated for a total of eight days. […] Each experiment was performed in triplicate, yielding identical results.

[10] = tested on: E. faecium; assay: Resistance serial passage assay; type: cell-based, Enterococcus faecium; conditions: 8 passages, concentration doubled each day
Method: as §3

[11] = tested on: A. baumannii; assay: Resistance serial passage assay; type: cell-based, Acinetobacter baumannii; conditions: 8 passages, concentration doubled each day
Method: as §3

[12] = tested on: S. aureus; assay: Resistance serial passage assay; type: cell-based, Staphylococcus aureus; conditions: 8 passages, concentration doubled each day
Method: as §3

[13] = tested on: Staphylococcus aureus (USA300 strain FPR3757); assay: Murine model of lethal peritonitis; type: in vivo, mice; conditions: I.V.
Method: Using MRSA as a representative ESKAPE organism, we infected mice with 1×10^8 bacterial cells in 5% mucin via intraperitoneal injection. At 1 h post-infection, mice were then I.V. injected with either vancomycin (positive control), or I.M. with our front runner compounds.
Six mice per group were injected with 1×10^8 CFU ml^−1 of Staphylococcus aureus (USA300 strain FPR3757) in PBS containing 5% mucin. […] Mice were monitored twice daily for five days to assess mortality. The clinical endpoint of this study was when the mice reached a pre-moribund state. Characteristics of pre-moribund state include: hunched posture, rapid, shallow and/or labored breathing, ruffled fur, lethargy, failure to respond to stimuli, soiled anogenital area, paralysis, paresis, head tilt, circling, vocalizations, non-purposeful movements and/or were unable to eat or drink. Those mice reaching this state prior to the completion of the 5 day infection period were euthanized. The number of mice surviving between control and treatment groups was compared and analyzed for statistical significance using a log rank test.

[14] = tested on: human red blood cells (hRBCs)
Method: A hemolysis assay was performed using whole human blood (Bioreclamation), as described previously,^47 with the following modifications. Human red blood cells (hRBCs) were resuspended 20% v/v in 1× HA buffer (4.25 ml 10% NaCl; 1 ml CaCl2 in 50 ml sterile water), and lead agents were added at a concentration of 10 μM, to a final volume of 100 μl. Cells were incubated for 15 minutes at 37° C. before being centrifuged at 5,500 g for 1 minute to pellet non-lysed hRBCs. The supernatant was removed, added to a 96-well microtiter plate and the OD543 read using a Biotek synergy2 plate reader. The negative control was vehicle only (DMF), and the positive control was 1.0% triton X-100.

Compound	stacked score activity, 100/MIC, S [1]	stacked score activity, 100/MIC, K [2]	stacked score activity, 100/MIC, A [3]	stacked score activity, 100/MIC, E [4]	stacked score activity, 100/MIC, E [5]	pathogens against which the compound showed activity at 25 ug/ml [6]	also measured
CCCCCCCN1C(=N)N(CCCC[C@H]2CNC(=N)N2CCC23CC4CC(CC(C4)C2)C3)C[C@@H]1CC1CCCCC1 [Compound 25]	20	20	25	20	50	ESKAPE	pathogens against which the compound showed activity at 4 ug/ml ([6]; dose 4 ug/ml): EAP; pathogens against which the compound showed activity at 5 ug/ml [6]: ESKAPE; pathogens against which the compound showed activity at 10 ug/ml [6]: ESKAPE
N=C1NC[C@H](CCCCN2C[C@H](CC3CCCCC3)N(CCCCC3CCCCC3)C2=N)N1CCC12CC3CC(CC(C3)C1)C2 [Compound 26]	20	20	20	20	20	ESKAPE	pathogens against which the compound showed activity at 5 ug/ml [6]: ESKAPE; pathogens against which the compound showed activity at 10 ug/ml [6]: ESKAPE
N=C1NC[C@H](CCCCN2C[C@H](CC3CCCCC3)N(CCc3ccc(-c4ccccc4)cc3)C2=N)N1CCC12CC3CC(CC(C3)C1)C2 [Compound 27]	20	20	4	10	10	ESKAPE	pathogens against which the compound showed activity at 5 ug/ml [6]: SKP; pathogens against which the compound showed activity at 10 ug/ml [6]: ESKPE
CCCCCCCN1C(=N)NC[C@@H]1CCCCN1C[C@H](C(C)CC)N(CCc2cccc(C)c2)C1=N (stereo partly drawn) [Compound 32]	33	0	4	0	10	ESAP	
CCCCCCCN1C(=N)NC[C@@H]1CCCCN1C[C@@H](CCC)N(CCc2cccc(C)c2)C1=N [Compound 35]	10	0	4	0	4	ESAP	
CCC(C)[C@H]1CN(CCCC[C@H]2CNC(=N)N2CC2CCC(C)CC2)C(=N)N1CCc1cccc(C)c1 (stereo partly drawn) [Compound 50]	10	0	4	0	10	ESA	
CCCCCCCCCCCCOS(=O)(=O)[O-].[Na+] [SDS, sodium dodecyl sulfate]							cells remaining after exposure (optical density relative to starting values) [7]: 52.2%; cell recovery (viability, CFU/mL vs no drug control) [7]: 0%
CC(C)(C)CC(C)(C)c1ccc(OCCOCC[N+](C)(C)Cc2ccccc2)cc1 [benzethonium chloride]							cells remaining after exposure (optical density relative to starting values) [7]: 32.63%; cell recovery (viability, CFU/mL vs no drug control) [7]: 0%
C[C@H]1c2cccc(O)c2C(=O)C2=C(O)[C@]3(O)C(=O)C(C(N)=O)=C(O)[C@@H](N(C)C)[C@@H]3[C@@H](O)[C@@H]21 [doxycycline]							cell recovery (viability, CFU/mL vs no drug control) [7]: 92%
COC(=O)[C@H]1[C@H]2C[C@@H]3c4[nH]c5cc(OC)ccc5c4CCN3C[C@H]2C[C@@H](OC(=O)c2cc(OC)c(OC)c(OC)c2)[C@@H]1OC [reserpine, reference compound]							effect on growth, agent alone [8]: no effect
CO[C@H]1/C=C/O[C@@]2(C)Oc3c(C)c(O)c4c(O)c(c(/C=N/N5CCN(C)CC5)c(O)c4c3C2=O)NC(=O)/C(C)=C\C=C\[C@H](C)[C@H](O)[C@@H](C)[C@@H](O)[C@@H](C)[C@H](OC(C)=O)[C@@H]1C [rifampin, reference compound]							increase in MIC after serial passage [9]: 128 fold
CN(C)[C@@H]1C(O)=C(C(N)=O)C(=O)[C@@]2(O)C(O)=C3C(=O)c4c(O)cccc4[C@@](C)(O)[C@H]3C[C@@H]12 [tetracycline, reference compound]							increase in MIC after serial passage [10]: 128 fold; increase in MIC after serial passage [11]: 128 fold
CN[C@H](CC(C)C)C(=O)N[C@H]1C(=O)N[C@@H](CC(N)=O)C(=O)N[C@H]2C(=O)N[C@H]3C(=O)N[C@H](C(=O)N[C@H](C(=O)O)c4cc(O)cc(O)c4-c4cc3ccc4O)[C@H](O)c3ccc(c(Cl)c3)Oc3cc2cc(c3O[C@@H]2O[C@H](CO)[C@@H](O)[C@H](O)[C@H]2O[C@H]2C[C@](C)(N)[C@H](O)[C@H](C)O2)Oc2ccc(cc2Cl)[C@H]1O [vancomycin, reference compound]							increase in MIC after serial passage [12]: 128 fold; protectivity ([13]; 5× MIC, 1 h post-infection (not significant)): 50%; protectivity ([13]; 10× MIC, 1 h post-infection): 100%
Triton-X100							hemolysis [14]: 100%
benzalkonium chloride [listing 1 of 2 here]							cells remaining after exposure (optical density relative to starting values) [7]: 28.56%
benzalkonium chloride [listing 2 of 2 here]							cell recovery (viability, CFU/mL vs no drug control) [7]: 0%
lysostaphin: a S. aureus specific lytic agent, positive control							cell recovery (viability, CFU/mL vs no drug control) [7]: 0%; lysis of MRSA cells ([7]; within 10 minutes of exposure, 4 μM lysostaphin): > 50%

— US20170065564A1, “BIS-CYCLIC GUANIDINE COMPOUND COMPOSITIONS, METHODS OF USE AND TREATMENT THEREOF” (University of South Florida, priority 2014, published 2017)
